Laboratory results reported in paper PMC9516332 (Frontiers in Oncology, 2022).
Where two headings read alike, the source gives them in different places.

Assays:
[1] = biological target: panel of 255 wild-type kinases (Homo sapiens, UniProt P06241); experiment: Kinase panel profiling at 1 µmol/L (MSA or IMAP), percentage inhibition; assay type: biochemical; conditions: kinase FYN [isoform a]; 1 µmol/L single concentration; read-out: %-inhibition at 1 µmol/L, FYN [isoform a]
[2] = biological target: panel of 255 wild-type kinases (Homo sapiens, UniProt P48729); experiment: as above; assay type: biochemical; conditions: kinase CK1α; 1 µmol/L single concentration; read-out: %-inhibition at 1 µmol/L, CK1α
[3] = biological target: panel of 255 wild-type kinases (Homo sapiens, UniProt Q13882); experiment: as above; assay type: biochemical; conditions: BRK kinase assay; 1 µmol/L single concentration; read-out: %-inhibition BRK
[4] = biological target: panel of 255 wild-type kinases (Homo sapiens, UniProt Q16816); experiment: as above; assay type: biochemical; conditions: kinase PHKG1; 1 µmol/L single concentration; read-out: %-inhibition at 1 µmol/L, PHKG1
[5] = biological target: panel of 255 wild-type kinases (Homo sapiens, UniProt Q9H422); experiment: as above; assay type: biochemical; conditions: kinase HIPK3; 1 µmol/L single concentration; read-out: %-inhibition at 1 µmol/L, HIPK3
AP-1060 (ETV6-NTRK3) = experiment: Cell viability assay; conditions: read-out: IC50 in cell proliferation assay
134 cancer cell lines = experiment: Cell viability assay (ATPlite, 72 hours), IC50 on cancer cell line panel

inhibition at 1 µM [1]: 24%
inhibition at 1 µM [2]: 25%
inhibition at 1 µM [3]: 19%
inhibition at 1 µM [4]: 8%
inhibition at 1 µM [5]: -3%
IC50 (134 cancer cell lines; HEC-6, read-out: IC50 in cell proliferation assay, HEC-6 cell line (EGFR p.A289V)): > 31.6 µM
IC50 (134 cancer cell lines; Homo sapiens, 769-P, read-out: IC50 in cell proliferation assay, cell line 769-P): 5.72 µM
IC50 (134 cancer cell lines; Homo sapiens, 786-0, read-out: IC50 in cell proliferation assay, cell line 786-O): 7.5 µM
IC50 (134 cancer cell lines; Homo sapiens, A 172, read-out: IC50 in cell proliferation assay, cell line A-172): 1.33 µM
IC50 (134 cancer cell lines; Homo sapiens, A204, read-out: IC50 in cell proliferation assay, cell line A-204): 2.47 µM
IC50 (134 cancer cell lines; Homo sapiens, A498, read-out: IC50 in cell proliferation assay, cell line A-498): 6.25 µM
IC50 (134 cancer cell lines; Homo sapiens, A549, read-out: IC50 in cell proliferation assay, cell line A-549): 3.75 µM
IC50 (134 cancer cell lines; Homo sapiens, A704, read-out: IC50 in cell proliferation assay, cell line A-704): 2.74 µM
IC50 (134 cancer cell lines; Homo sapiens, A-375, read-out: IC50 in cell proliferation assay, cell line A-375 (BRAF p.V600E)): 4.28 µM
IC50 (134 cancer cell lines; Homo sapiens, A-427, read-out: IC50 in cell proliferation assay, cell line A-427): 1.53 µM
IC50 (134 cancer cell lines; Homo sapiens, ACHN, read-out: IC50 in cell proliferation assay, cell line ACHN): 2.78 µM
IC50 (134 cancer cell lines; Homo sapiens, AN3-CA, read-out: IC50 in cell proliferation assay, cell line AN3-CA (FGFR2 p.N549K)): 0.576 µM
IC50 (134 cancer cell lines; Homo sapiens, ASPC1, read-out: IC50 in cell proliferation assay, cell line AsPC-1): > 31.6 µM
IC50 (134 cancer cell lines; Homo sapiens, AU565, read-out: IC50 in cell proliferation assay, cell line AU565 (ERBB2 amplification)): 2.85 µM
IC50 (134 cancer cell lines; Homo sapiens, BT-20, read-out: IC50 in cell proliferation assay, cell line BT-20): 3.36 µM
IC50 (134 cancer cell lines; Homo sapiens, BT-474, read-out: IC50 in cell proliferation assay, cell line BT-474 (ERBB2 amplification)): 28.7 µM
IC50 (134 cancer cell lines; Homo sapiens, BT-549, read-out: IC50 in cell proliferation assay, cell line BT-549): 3.82 µM
IC50 (134 cancer cell lines; Homo sapiens, BXPC-3, read-out: IC50 in cell proliferation assay, cell line BxPC-3): 3.95 µM
IC50 (134 cancer cell lines; Homo sapiens, C-33-A, read-out: IC50 in cell proliferation assay, cell line C-33 A): 2.85 µM
IC50 (134 cancer cell lines; Homo sapiens, CAL-27, read-out: IC50 in cell proliferation assay, cell line CAL-27): 4.41 µM
IC50 (134 cancer cell lines; Homo sapiens, CCF-STTG1, read-out: IC50 in cell proliferation assay, cell line CCF-STTG1): 7.96 µM
IC50 (134 cancer cell lines; Homo sapiens, CCRF-CEM, read-out: IC50 in cell proliferation assay, cell line CCRF-CEM): 3.45 µM
IC50 (134 cancer cell lines; Homo sapiens, COLO 205, read-out: IC50 in cell proliferation assay, cell line COLO 205 (BRAF p.V600E)): 4.42 µM
IC50 (134 cancer cell lines; Homo sapiens, COLO-829, read-out: IC50 in cell proliferation assay, cell line COLO 829 (BRAF p.V600E)): 10.7 µM
IC50 (134 cancer cell lines; Homo sapiens, DLD-1, read-out: IC50 in cell proliferation assay, cell line DLD-1): 8.43 µM
IC50 (134 cancer cell lines; Homo sapiens, DU-4475, read-out: IC50 in cell proliferation assay, cell line DU4475 (BRAF p.V600E)): 6.24 µM
IC50 (134 cancer cell lines; Homo sapiens, Daoy, read-out: IC50 in cell proliferation assay, cell line Daoy): 3.17 µM
IC50 (134 cancer cell lines; Homo sapiens, DoTc2-4510, read-out: IC50 in cell proliferation assay, cell line DoTc2 4510): 4.18 µM
IC50 (134 cancer cell lines; Homo sapiens, EOL1, read-out: IC50 in cell proliferation assay, cell line EoL-1 (FIP1L1-PDGFRA)): 0.29 µM
IC50 (134 cancer cell lines; Homo sapiens, FaDu, read-out: IC50 in cell proliferation assay, cell line FaDu): 4.82 µM
IC50 (134 cancer cell lines; Homo sapiens, G-361, read-out: IC50 in cell proliferation assay, cell line G-361 (BRAF p.V600E)): 5.87 µM
IC50 (134 cancer cell lines; Homo sapiens, HCC827, read-out: IC50 in cell proliferation assay, cell line HCC827 (EGFR exon19del)): 13.5 µM
IC50 (134 cancer cell lines; Homo sapiens, HCC4006, read-out: IC50 in cell proliferation assay, cell line HCC4006 (EGFR exon19del)): 6.75 µM
IC50 (134 cancer cell lines; Homo sapiens, HCT-15, read-out: IC50 in cell proliferation assay, cell line HCT 15): 10.7 µM
IC50 (134 cancer cell lines; Homo sapiens, HCT-116, read-out: IC50 in cell proliferation assay, cell line HCT 116): 14.9 µM
IC50 (134 cancer cell lines; Homo sapiens, HEC-1, read-out: IC50 in cell proliferation assay, HEC-1 cell line): 8.9 µM
IC50 (134 cancer cell lines; Homo sapiens, HEC-1B, read-out: IC50 in cell proliferation assay, HEC-1-B cell line (EGFR p.A864V)): 2.07 µM
IC50 (134 cancer cell lines; Homo sapiens, HL-60, read-out: IC50 in cell proliferation assay, HL-60 cell line): 5.79 µM
IC50 (134 cancer cell lines; Homo sapiens, HT, read-out: IC50 in cell proliferation assay, HT cell line): 4.86 µM
IC50 (134 cancer cell lines; Homo sapiens, HT-1080, read-out: IC50 in cell proliferation assay, HT-1080 cell line): 5.16 µM
IC50 (134 cancer cell lines; Homo sapiens, Hs746T, read-out: IC50 in cell proliferation assay, Hs 746.T cell line (MET exon14skip + amplification)): 28.1 µM
IC50 (134 cancer cell lines; Homo sapiens, Hs-578T, read-out: IC50 in cell proliferation assay, Hs 578T cell line): 3.61 µM
IC50 (134 cancer cell lines; Homo sapiens, HuTu80, read-out: IC50 in cell proliferation assay, HuTu 80 cell line): 1.35 µM
IC50 (134 cancer cell lines; Homo sapiens, J82, read-out: IC50 in cell proliferation assay, J82 cell line): 3.3 µM
IC50 (134 cancer cell lines; Homo sapiens, Jurkat E6.1, read-out: IC50 in cell proliferation assay, Jurkat E6.1 cell line): 4.03 µM
IC50 (134 cancer cell lines; Homo sapiens, K562, read-out: IC50 in cell proliferation assay, K-562 cell line): 5.5 µM
IC50 (134 cancer cell lines; Homo sapiens, KATO III, read-out: IC50 in cell proliferation assay, KATO III cell line (FGFR2 amplification)): 0.241 µM
IC50 (134 cancer cell lines; Homo sapiens, KG-1, read-out: IC50 in cell proliferation assay, KG-1 cell line (FGFR1OP2-FGFR1)): 0.227 µM
IC50 (134 cancer cell lines; Homo sapiens, KLE, read-out: IC50 in cell proliferation assay, KLE cell line): 5.6 µM
IC50 (134 cancer cell lines; Homo sapiens, KMS-11, read-out: IC50 in cell proliferation assay, KMS-11 cell line (FGFR3 p.Y373C)): 0.661 µM
IC50 (134 cancer cell lines; Homo sapiens, KU812, read-out: IC50 in cell proliferation assay, Ku812 cell line): 3.54 µM
IC50 (134 cancer cell lines; Homo sapiens, Kasumi 1, read-out: IC50 in cell proliferation assay, Kasumi-1 cell line (KIT p.N822K)): 0.277 µM
IC50 (134 cancer cell lines; Homo sapiens, LC-2-ad, read-out: IC50 in cell proliferation assay, LC-2/ad cell line (CCDC6-RET)): 0.018 µM
IC50 (134 cancer cell lines; Homo sapiens, LNCaP-Clone-FGC, read-out: IC50 in cell proliferation assay, LNCaP clone FGC cell line): 16.8 µM
IC50 (134 cancer cell lines; Homo sapiens, LS174T, read-out: IC50 in cell proliferation assay, LS174T cell line): 4.21 µM
IC50 (134 cancer cell lines; Homo sapiens, LS-411N, read-out: IC50 in cell proliferation assay, LS411N cell line (BRAF p.V600E)): 3.76 µM
IC50 (134 cancer cell lines; Homo sapiens, LoVo, read-out: IC50 in cell proliferation assay, LoVo cell line): 0.767 µM
IC50 (134 cancer cell lines; Homo sapiens, MCF7, read-out: IC50 in cell proliferation assay, MCF-7 cell line): > 31.6 µM
IC50 (134 cancer cell lines; Homo sapiens, MDA-MB-231, read-out: IC50 in cell proliferation assay, MDA-MB-231 cell line): 28 µM
IC50 (134 cancer cell lines; Homo sapiens, MDA-MB-453, read-out: IC50 in cell proliferation assay, MDA-MB-453 cell line): > 31.6 µM
IC50 (134 cancer cell lines; Homo sapiens, MDA-MB-468, read-out: IC50 in cell proliferation assay, MDA-MB-468 cell line): 5.5 µM
IC50 (134 cancer cell lines; Homo sapiens, MG-63, read-out: IC50 in cell proliferation assay, MG-63 cell line): 3.08 µM
IC50 (134 cancer cell lines; Homo sapiens, MIA PaCa-2, read-out: IC50 in cell proliferation assay, MIA PaCa-2 cell line): 3.4 µM
SMILES: COc1ccc(CN2C3CC2CN(c2ccc(-c4cc(OCC(C)(C)O)cn5ncc(C#N)c45)cn2)C3)cn1 [selpercatinib]
IC50 (AP-1060 (ETV6-NTRK3)): 3.96 µM
